# ChEMBL document CHEMBL5143749, “Discovery of Insulin/GLP-1/Glucagon Triagonists for the Treatment of Diabetes and Obesity” (ACS Med Chem Lett, 2022)
# Experiments:
# Homo sapiens = species on record: Homo sapiens; test: Selectivity ratio of EC50 for human […] expressed in frozen cells to EC50 for human GLP1R expressed in frozen cells; assay type: cell-based
# [1] = molecular target: Glucagon-like peptide 1 receptor (Homo sapiens, UniProt P43220); test: Agonist activity at human GLP1R expressed in frozen cells assessed as measuring the cAMP level incubated for 1 hr by HitHunter chemiluminescence based assay; assay type: functional, cell-based
# Glucagon receptor = Glucagon receptor (Homo sapiens, UniProt P47871); test: Agonist activity at human GCGR expressed in frozen cells assessed as measuring the cAMP level incubated for 1 hr by HitHunter chemiluminescence based assay; assay type: functional, cell-based
# Chain of Glucagon receptor (P47871 whole entry): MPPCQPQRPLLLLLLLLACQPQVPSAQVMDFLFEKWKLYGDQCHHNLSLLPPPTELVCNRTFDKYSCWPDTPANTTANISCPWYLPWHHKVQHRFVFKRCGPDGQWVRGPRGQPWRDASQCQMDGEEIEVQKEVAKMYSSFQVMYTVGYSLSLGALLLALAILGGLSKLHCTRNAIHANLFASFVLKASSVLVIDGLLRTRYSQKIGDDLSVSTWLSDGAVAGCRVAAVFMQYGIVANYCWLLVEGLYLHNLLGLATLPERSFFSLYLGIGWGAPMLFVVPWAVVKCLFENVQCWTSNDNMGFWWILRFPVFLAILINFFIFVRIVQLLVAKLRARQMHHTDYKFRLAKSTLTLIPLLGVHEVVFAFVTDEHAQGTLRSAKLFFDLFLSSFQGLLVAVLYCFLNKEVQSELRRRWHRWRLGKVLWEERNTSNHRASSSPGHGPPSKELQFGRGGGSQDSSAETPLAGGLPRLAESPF
# Chain of Glucagon-like peptide 1 receptor (P43220 whole entry): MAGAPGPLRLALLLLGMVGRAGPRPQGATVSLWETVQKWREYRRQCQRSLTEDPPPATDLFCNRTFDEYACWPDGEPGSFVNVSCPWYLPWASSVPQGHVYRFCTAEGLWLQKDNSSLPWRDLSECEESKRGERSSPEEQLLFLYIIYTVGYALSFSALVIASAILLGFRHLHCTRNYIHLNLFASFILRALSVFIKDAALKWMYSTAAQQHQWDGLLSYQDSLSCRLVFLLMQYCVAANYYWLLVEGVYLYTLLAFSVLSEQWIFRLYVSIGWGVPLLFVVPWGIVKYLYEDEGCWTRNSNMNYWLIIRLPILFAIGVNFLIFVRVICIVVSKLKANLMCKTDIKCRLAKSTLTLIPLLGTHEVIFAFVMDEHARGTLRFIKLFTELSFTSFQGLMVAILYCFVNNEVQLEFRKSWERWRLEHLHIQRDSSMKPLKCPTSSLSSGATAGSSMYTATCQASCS
Compound,Ratio EC50 (Homo sapiens),EC50 [1] [nM],EC50 (Glucagon receptor) [nM]
CCCCCCCCCCCCCCCC(=O)N[C@@H](CCC(=O)N[C@@H](CCC(=O)NCCCC[C@H](NC(=O)[C@H](CC(=O)O)NC(=O)[C@H](CO)NC(=O)[C@@H](NC(=O)[C@H](Cc1ccccc1)NC(=O)[C@@H](NC(=O)CNC(=O)[C@H](CCC(N)=O)NC(=O)[C@@H](CO)NC(=O)[C@@H](N)Cc1cnc[nH]1)[C@@H](C)O)[C@@H](C)O)C(=O)N[C@@H](CO)C(=O)N[C@@H](CCCCN)C(=O)N[C@@H](Cc1ccc(O)cc1)C(=O)N[C@@H](CC(C)C)C(=O)N[C@@H](CC(=O)O)C(=O)N[C@@H](C)C(=O)N[C@@H](CCCNC(=N)N)C(=O)N[C@@H](C)C(=O)N[C@@H](C)C(=O)N[C@@H](CCC(N)=O)C(=O)N[C@@H](CC(=O)O)C(=O)N[C@@H](Cc1ccccc1)C(=O)N[C@H](C(=O)N[C@@H](CCC(N)=O)C(=O)N[C@@H](Cc1c[nH]c2ccccc12)C(=O)N[C@@H](CC(C)C)C(=O)N[C@@H](CC(C)C)C(=O)N[C@@H](CC(=O)O)C(=O)N[C@H](C(N)=O)[C@@H](C)O)C(C)C)C(=O)O)C(=O)O,0.9,–,–
CCCCCCCCCCCCCCCC(=O)N[C@@H](CCC(=O)N[C@@H](CCC(=O)NCCCC[C@H](NC(=O)[C@H](CC(=O)O)NC(=O)[C@H](CO)NC(=O)[C@@H](NC(=O)[C@H](Cc1ccccc1)NC(=O)[C@@H](NC(=O)CNC(=O)[C@H](CCC(N)=O)NC(=O)[C@@H](CO)NC(=O)[C@@H](N)Cc1c[nH]cn1)[C@@H](C)O)[C@@H](C)O)C(=O)N[C@@H](CO)C(=O)N[C@@H](CCCCN)C(=O)N[C@@H](Cc1ccc(O)cc1)C(=O)N[C@@H](CC(C)C)C(=O)N[C@@H](CC(=O)O)C(=O)N[C@@H](CCC(=O)O)C(=O)N[C@@H](CCCNC(=N)N)C(=O)N[C@@H](C)C(=O)N[C@@H](C)C(=O)N[C@@H](CCCCNC(=O)COCCOCCNC(=O)CCCCN=[N+]=[N-])C(=O)N[C@@H](CC(=O)O)C(=O)N[C@@H](Cc1ccccc1)C(=O)N[C@H](C(=O)N[C@@H](CCC(N)=O)C(=O)N[C@@H](Cc1c[nH]c2ccccc12)C(=O)N[C@@H](CC(C)C)C(=O)N[C@@H](CC(C)C)C(=O)N[C@@H](CC(=O)O)C(=O)N[C@H](C(N)=O)[C@@H](C)O)C(C)C)C(=O)O)C(=O)O,0.8,–,–
CCCCCCCCCCCCCCCC(=O)N[C@@H](CCC(=O)N[C@@H](CCC(=O)NCCCC[C@H](NC(=O)[C@H](CC(=O)O)NC(=O)[C@H](CO)NC(=O)[C@@H](NC(=O)[C@H](Cc1ccccc1)NC(=O)[C@@H](NC(=O)CNC(=O)[C@H](CCC(N)=O)NC(=O)C(C)(C)NC(=O)[C@@H](N)Cc1c[nH]cn1)[C@@H](C)O)[C@@H](C)O)C(=O)N[C@@H](CO)C(=O)N[C@@H](CCCCN)C(=O)N[C@@H](Cc1ccc(O)cc1)C(=O)N[C@@H](CC(C)C)C(=O)N[C@@H](CC(=O)O)C(=O)NC(C)(C)C(=O)N[C@@H](CCCNC(=N)N)C(=O)N[C@@H](C)C(=O)N[C@@H](C)C(=O)N[C@@H](CCC(N)=O)C(=O)N[C@@H](CC(=O)O)C(=O)N[C@@H](Cc1ccccc1)C(=O)N[C@H](C(=O)N[C@@H](CCC(N)=O)C(=O)N[C@@H](Cc1c[nH]c2ccccc12)C(=O)N[C@@H](CC(C)C)C(=O)N[C@@H](CC(C)C)C(=O)N[C@@H](CC(=O)O)C(=O)N[C@H](C(=O)N[C@@H](CCCCN)C(=O)N[C@@H](CCCCN=[N+]=[N-])C(N)=O)[C@@H](C)O)C(C)C)C(=O)O)C(=O)O,1.4,–,–
CCCCCCCCCCCCCCCC(=O)N[C@@H](CCC(=O)N[C@@H](CCC(=O)NCCCC[C@H](NC(=O)[C@H](CC(=O)O)NC(=O)[C@H](CO)NC(=O)[C@@H](NC(=O)[C@H](Cc1ccccc1)NC(=O)[C@@H](NC(=O)CNC(=O)[C@H](CCC(N)=O)NC(=O)[C@@H](CO)NC(=O)[C@@H](N)Cc1c[nH]cn1)[C@@H](C)O)[C@@H](C)O)C(=O)N[C@@H](CO)C(=O)N[C@@H](CC(C)C)C(=O)N[C@@H](Cc1ccc(O)cc1)C(=O)N[C@@H](CC(C)C)C(=O)N[C@@H](CC(=O)O)C(=O)NC(C)(C)C(=O)N[C@@H](CCCNC(=N)N)C(=O)N[C@@H](C)C(=O)N[C@@H](C)C(=O)N[C@@H](CCC(N)=O)C(=O)N[C@@H](CC(=O)O)C(=O)N[C@@H](Cc1ccccc1)C(=O)N[C@H](C(=O)N[C@@H](CCC(N)=O)C(=O)N[C@@H](Cc1c[nH]c2ccccc12)C(=O)N[C@@H](CC(C)C)C(=O)N[C@@H](CC(C)C)C(=O)N[C@@H](CC(N)=O)C(=O)N[C@H](C(=O)N[C@@H](CCCCN=[N+]=[N-])C(=O)N[C@@H](CCC(N)=O)C(=O)O)[C@@H](C)O)C(C)C)C(=O)O)C(=O)O,–,1.04,–
CCCCCCCCCCCCCCCC(=O)N[C@@H](CCC(=O)N[C@@H](CCC(=O)NCCCC[C@H](NC(=O)[C@H](CC(=O)O)NC(=O)[C@H](CO)NC(=O)[C@@H](NC(=O)[C@H](Cc1ccccc1)NC(=O)[C@@H](NC(=O)CNC(=O)[C@H](CCC(N)=O)NC(=O)[C@@H](CO)NC(=O)[C@@H](N)Cc1c[nH]cn1)[C@@H](C)O)[C@@H](C)O)C(=O)N[C@@H](CO)C(=O)N[C@@H](CCCCN)C(=O)N[C@@H](Cc1ccc(O)cc1)C(=O)N[C@@H](CC(C)C)C(=O)N[C@@H](CC(=O)O)C(=O)N[C@@H](CCC(=O)O)C(=O)N[C@@H](CCCNC(=N)N)C(=O)N[C@@H](C)C(=O)N[C@@H](C)C(=O)N[C@@H](CCC(N)=O)C(=O)N[C@@H](CCCCN=[N+]=[N-])C(=O)N[C@@H](Cc1ccccc1)C(=O)N[C@H](C(=O)N[C@@H](CCC(N)=O)C(=O)N[C@@H](Cc1c[nH]c2ccccc12)C(=O)N[C@@H](CC(C)C)C(=O)N[C@@H](CC(C)C)C(=O)N[C@@H](CC(=O)O)C(=O)N[C@H](C(N)=O)[C@@H](C)O)C(C)C)C(=O)O)C(=O)O,0.5,0.028,0.013
